Source: patent US4855086A, “Novel pesticides, preparation and use” (Burroughs Wellcome Co., priority 1982, dated 1989)
Where two headings read alike, the source gives them in different places.

Key:
[1] = tested on: female Musca domestica (WRL strain); experiment: Topical application to houseflies with and without piperonyl butoxide pretreatment (Example A); conditions: for percent knockdown: 6 μg applied, 1 hour; for mortality at 0.006 mg: Musca domestica, topical, 24 h
Description: Where pretreatment with a synergist was used, the test compound was applied 1 hour after application of the synergist (6 μg piperonyl butoxide (PB) per insect). Knockdown was assessed after 1 hour, and mortality after 24 hours.

male Blattella germanica = experiment: Exposure of cockroaches to deposit on glass with piperonyl butoxide (Example B); type: in vivo; conditions: 700 (+700 pb) mg m^-2
Description: Knockdown was assessed after 10 and 60 minutes and mortality after 1 and 6 days.

Sitophilus granarius = type: in vivo; conditions: 200 (+1000 pb) ppm; 6 days
[2] = tested on: third instar larvae of Aedes aegypti; experiment: Exposure of mosquito larvae to aqueous suspension with piperonyl butoxide (Example D); type: in vivo; conditions: 2.5 (+12.5 pb) ppm; 18 hours
Description: Mortality was assessed after 18 hours.

[3] = tested on: gamma-aminobutyric acid (GABA) release from insect synaptosomes; experiment: Release of 3H-labelled GABA from insect synaptosomes (Example H); type: biochemical; conditions: 1 = most potent of five compounds
Excerpt: Interference with gamma-aminobutyric acid (GABA) release from insect synaptosomes is thought to be important in the insecticidal action of the compounds of the invention. Using published procedures (E. G. Gray and V. P. Whittaker, Journal of Anatomy 96, 79-87 (1962); G. Levi, V. Gallo and M. Raiter, Neurochemical Research 5(3), 281-295 (1980)), compounds of Formula I were compared with related compounds outside the scope of the invention.
Arranged in decreasing order of potency (release of ^3 H-labelled GABA), the compounds were: […]

female Aedes aegypti = experiment: Application to adult mosquitoes with piperonyl butoxide (Example E); type: in vivo; conditions: 2 (4 pb) μg applied
Description: Knockdown was assessed after 1 hour and mortality after 24 hours.

[4] = tested on: fully engorged female Boophilus microplus, susceptible strain; experiment: Cattle tick injection test (Example F (i)); type: in vivo; conditions: 14 days; for No. dead / No. laying viable eggs: 10 ticks
Description: The compound was supplied as a […] solution in DMSO:Acetone (1:1). Administration of the compound was by means of a microapplicator which was preset to deliver 0.2 μl of solution. The compound in solution was injected into fully engorged female Boophilus microplus, susceptible strain, at a site just lateral to the mouthparts at the rate of 10 μg/tick. Reducing the concentration reduced the dose delivered. After injection the ticks were maintained at 24° C. and 85% RH for 14 days. At this time the ticks were examined for the presence of viable eggs which gave the percent inhibition of reproduction (% IR). The number of dead ticks was also noted.

[5] = tested on: fully engorged female B. microplus susceptible strain; experiment: Cattle tick adult immersion test (Example F (ii), (iii)); type: in vivo, Boophilus microplus; conditions: adults, 10 minutes immersion, 14 days
Description: The compound was supplied as a 100 mg/liter solution in Esso 200/[…]. Dilution with water gave the required concentrations. Groups of 20 fully engorged female B. microplus susceptible strain were placed in a mesh basket which was immersed in the test dilution for 10 minutes. After immersion the ticks were removed, dried and then fixed to double-sided adhesive tape which was itself affixed to white plastic boards. The boards holding the ticks were held at 24° C. and 85% RH for 14 days. Individual egg masses were scored from 0-4 for quality and quantity and the total score for each group was obtained. The scores were corrected for water control oviposition, plotted on log-probit paper and the % concentration inhibiting 50% and 99% of viable oviposition determined.

B. microplus Susceptible = experiment: Larval tick immersion test, susceptible strain (Example F); type: in vivo, Boophilus microplus; conditions: larvae
Excerpt: (§1) Larval ticks were immersed using a published method (Shaw, R. D., Cook, M. and Carson, R. E. (1968). J. Econ. Ent. 61, 1590). Mortality data are presented for B. microplus susceptible and pyrethroid resistant strain (Malchi).

[6] = tested on: B. microplus pyrethroid resistant strain (Malchi); experiment: Larval tick immersion test, pyrethroid resistant strain (Example F); type: in vivo, Boophilus microplus; conditions: larvae
Excerpt: as §1

[7] = tested on: Female houseflies (Musca domestica); experiment: Potentiation by other unsaturated amides in houseflies (Example G (i)); type: in vivo; conditions: 6 μg PB one hour earlier
Description: Female houseflies (Musca domestica) were treated with solutions of compounds of Formula I and a potential synergist both dissolved in butanone, the flies having been treated one hour earlier with 6 μg piperonyl butoxide (PB).
The dose required to prevent flight of half the flies 10 minutes after application of the compound (KD50) was determined and the factor of potentiation (FOP) was calculated by the Equation of the Harmonic Mean for mixtures of the compounds.

houseflies = experiment: Potentiation by pyrethroids, spray chamber, S-bioallethrin (Example G (ii)); type: in vivo, housefly (Musca domestica); conditions: mixture ratio 45:1
Excerpt: Solutions of the compounds were sprayed into a chamber and houseflies released into the chamber.

[8] = 6 μg PB pretreatment 1 hour before
[9] = read-out: percent mortality, 6 μg applied, 6 μg PB pretreatment 1 hour before, 24 hours
[10] = read-out: percent mortality, 6 μg applied, synergist: none, 24 hours

CC(C)CNC(=O)/C=C/CC/C=C\c1ccccc1 [Example 3, N-isobutyl-7-phenylhepta-2E,6Z-dienamide]
percent knockdown [1, 8]: 90%
percent knockdown ([1]; synergist: none): 5%
mortality at 0.006 mg [1, 9]: 95%
mortality at 0.006 mg [1, 10]: 2.5%
% knockdown 10 mins (male Blattella germanica): 13%
% knockdown 60 mins (male Blattella germanica): 20%
% mortality 1 day (male Blattella germanica): 20%
% mortality 6 days (male Blattella germanica): 20%
% mortality (Sitophilus granarius): 100%
% mortality [2]: 100%

CC(C)CNC(=O)/C=C/C=C/CC/C=C\C=C\c1ccc2c(c1)OCO2 [reference compound]
rank in decreasing order of potency (release of ^3 H-labelled GABA) [3]: 2

CC(C)CNC(=O)/C=C/CC/C=C\C=C\c1ccc2c(c1)OCO2 [reference compound]
rank in decreasing order of potency (release of ^3 H-labelled GABA) [3]: 5

CCCCOCCOCCOCc1cc2c(cc1CCC)OCO2 [PB, piperonyl butoxide, reference compound]
mortality at 0.006 mg [1]: 0%
knockdown ([1]; PB alone, 6 μg per fly): 0%

CC(C)CNC(=O)/C=C/CC/C=C\C=C\c1ccccc1 [Example 9, N-isobutyl-9-phenyl-nona-2 (E),6(Z),8(E)-trienamide]
percent knockdown [1, 8]: 100%
percent knockdown ([1]; synergist: none): 95%
mortality at 0.006 mg [1, 9]: 100%
mortality at 0.006 mg [1, 10]: 0%
% knockdown 10 mins (male Blattella germanica): 7%
% knockdown 60 mins (male Blattella germanica): 7%
% mortality 1 day (male Blattella germanica): 33%
% mortality 6 days (male Blattella germanica): 40%
% mortality (Sitophilus granarius): 100%
% mortality [2]: 100%
% knockdown (female Aedes aegypti; 1 hour): 70%
% mortality (female Aedes aegypti; 24 hours): 80%
No. dead ([4]; 1 μg injected): 0
No. laying viable eggs ([4]; 1 μg injected): 8
% IR (percent inhibition of reproduction) ([4]; 1 μg injected): 20%
No. dead ([4]; 5 μg injected): 1
No. laying viable eggs ([4]; 5 μg injected): 3
% IR (percent inhibition of reproduction) ([4]; 5 μg injected): 70%
No. dead ([4]; 10 μg injected): 3
No. laying viable eggs ([4]; 10 μg injected): 1
% IR (percent inhibition of reproduction) ([4]; 10 μg injected): 90%
mortality at 0.001 mg ([4]; Rhipicephalus microplus, 336 h, 1 μg injected, read-out: % Kill): 0%
mortality at 0.005 mg ([4]; Rhipicephalus microplus, 336 h, 5 μg injected, read-out: % Kill): 10%
mortality at 0.01 mg ([4]; Rhipicephalus microplus, 336 h, 10 μg injected, read-out: % Kill): 30%
IR50 (% concentration inhibiting 50% of viable oviposition) [5]: 0.026%
IR99 (% concentration inhibiting 99% of viable oviposition) [5]: 0.1%
LC50 [5]: 0.1%
LC50 (B. microplus Susceptible): 0.00044%
LC50 [6]: 0.00022%
KD50 (dose required to prevent flight of half the flies 10 minutes after application) [7]: 8.4 μg/fly
LC50 (concentration for death of half the flies) (houseflies): 1.8%
rank in decreasing order of potency (release of ^3 H-labelled GABA) [3]: 3

C=CCC1=C(C)[C@@H](OC(=O)[C@@H]2[C@@H](C=C(C)C)C2(C)C)CC1=O [S-bioallethrin, reference compound]
LC50 (concentration for death of half the flies) (houseflies): 0.05%

CCCCC/C=C/C=C/C(=O)NCC(C)C [N--isobutyl-(2E,4E)-decadienamide, reference compound]
KD50 (dose required to prevent flight of half the flies 10 minutes after application) [7]: 77 μg/fly

CC(C)CNC(=O)/C=C/CC/C=C\C=C\c1cccc(C(F)(F)F)c1
rank in decreasing order of potency (release of ^3 H-labelled GABA) [3]: 4

CC(C)CNC(=O)/C=C/C=C/CC/C=C\C=C\c1cccc(C(F)(F)F)c1 [Example 10, N-isobutyl-11-(3'-trifluoromethylphenyl)-(2E,4E,8Z,10E)-undecatetrenamide]
KD50 (dose required to prevent flight of half the flies 10 minutes after application) [7]: 5.6 μg/fly
rank in decreasing order of potency (release of ^3 H-labelled GABA) [3]: 1
